In US7902200B2, “Chemical compounds” (AstraZeneca AB, priority 2006, dated 2011):

Columns and labels:
[1] = molecular target: T1, recombinant human pancreatic GLK (Homo sapiens, UniProt P35557); experiment: GKH4 variant of GLK enzymatic activity assay (automated end-point assay); assay type: biochemical; settings: activation of GLK; 10 nmol/l GLK; end-point at 10 minutes; no GLKRP
T1 construct: 6-His (N); made in house; host or cells: E. coli BL21
T1 sequence (P35557 1-465): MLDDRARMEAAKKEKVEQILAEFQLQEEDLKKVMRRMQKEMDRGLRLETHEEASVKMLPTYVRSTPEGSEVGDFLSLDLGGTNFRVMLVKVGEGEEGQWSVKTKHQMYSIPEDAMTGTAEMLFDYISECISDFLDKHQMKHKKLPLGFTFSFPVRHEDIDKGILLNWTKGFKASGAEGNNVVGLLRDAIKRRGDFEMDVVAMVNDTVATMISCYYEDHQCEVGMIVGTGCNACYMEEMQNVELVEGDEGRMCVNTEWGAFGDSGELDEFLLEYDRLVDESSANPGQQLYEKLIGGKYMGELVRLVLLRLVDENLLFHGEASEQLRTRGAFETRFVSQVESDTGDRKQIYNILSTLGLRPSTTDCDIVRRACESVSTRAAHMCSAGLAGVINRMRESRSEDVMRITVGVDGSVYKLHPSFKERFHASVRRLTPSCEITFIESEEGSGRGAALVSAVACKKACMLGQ
Method: (§1) Enzymatic activity of recombinant human pancreatic GLK may be measured by incubating GLK, ATP and glucose. The rate of product formation may be determined by coupling the assay to a G-6-P dehydrogenase, NADP/NADPH system and measuring the linear increase with time of optical density at 340 nm (Brocklehurst et al (Diabetes 2004, 53, 535-541). Activation of GLK by compounds can be assessed using this assay in the presence or absence of GLKRP as described in Brocklehurst et al (Diabetes 2004, 53, 535-541).
(§2) One or both of two variants of this assay, GKH1 and GKH4, were used to test the compounds of the invention. The GKH1 assay is a manual, bench-top rate assay using 60 nmol/l of recombinant human pancreatic GLK. The GLK activity rate is measured over a 5 minute window using a Multiskan Ascent spectrophotometer. The GKH4 assay is an automated end-point assay using 10 nmol/l of recombinant human pancreatic GLK. The GLK activity is measured at 10 minutes after the initiation of the assay on a Perkin Elmer Envision spectrophotometer.

[2] = molecular target: T1, recombinant human pancreatic GLK; experiment: GKH1 variant of GLK enzymatic activity assay (manual bench-top rate assay); assay type: biochemical; settings: activation of GLK; 60 nmol/l GLK; rate over 5 minute window; no GLKRP
Method: as §1, §2

| Compound | EC50 [1] [nM] | EC50 [2] [nM] |
| --- | --- | --- |
| Cc1cnc(NC(=O)c2cc(Oc3ccc4c(c3)OCN(C)C4=O)cc(O[C@H]3CCN(C)C3=O)c2)cn1 [Example 15, 3-[(4-Methyl-5-oxo-2-oxa-4-azabicyclo[4.4.0]deca-6,8,10-trien-9-yl)oxy]-5-(1-methyl-2-oxo-pyrrolidin-3-yl)oxy-N-(5-methylpyrazin-2-yl)benzamide] | 350 | 100 |
| Cc1cnc(NC(=O)c2cc(Oc3ccc(C(=O)N4CCC4)nc3)cc(O[C@@H]3CCN(C4CC4)C3=O)c2)cn1 [Example 18, 3-[6-(Azetidine-1-carbonyl)pyridin-3-yl]oxy-5-[(3R)-1-cyclopropyl-2-oxo-pyrrolidin-3-yl]oxy-N-(5-methylpyrazin-2-yl)benzamide] | 7230 | 3340 |
| Cc1cnc(NC(=O)c2cc(Oc3ccc(C(=O)N4CCC4)nc3)cc(O[C@@H]3CCN(C4CCC4)C3=O)c2)cn1 [Example 20, 3-[6-(Azetidine-1-carbonyl)pyridin-3-yl]oxy-5-[(3R)-1-cyclobutyl-2-oxo-pyrrolidin-3-yl]oxy-N-(5-methylpyrazin-2-yl)benzamide] | 900 | 420 |
| Cc1cnc(NC(=O)c2cc(Oc3ccc(C(=O)N4CCC4)nc3)cc(O[C@H]3CCN(C4CCC4)C3=O)c2)cn1 [Example 21, 3-[6-(Azetidine-1-carbonyl)pyridin-3-yl]oxy-5-[(3S)-1-cyclobutyl-2-oxo-pyrrolidin-3-yl]oxy-N-(5-methylpyrazin-2-yl)benzamide] | 1110 | 210 |
| CCN1CC[C@@H](Oc2cc(Oc3ccc(C(=O)N4CCC4)nc3)cc(C(=O)Nc3cnc(C)cn3)c2)C1=O [Example 22, -[6-(Azetidine-1-carbonyl)pyridin-3-yl]oxy-5-[(3R)-1-ethyl-2-oxo-pyrrolidin-3-yl]oxy-N-(5-methylpyrazin-2-yl)benzamide] | 6610 | 2370 |
| CCN1CC[C@H](Oc2cc(Oc3ccc(C(=O)N4CCC4)nc3)cc(C(=O)Nc3cnc(C)cn3)c2)C1=O [Example 23, 3-[6-(Azetidine-1-carbonyl)pyridin-3-yl]oxy-5-[(3S)-1-ethyl-2-oxo-pyrrolidin-3-yl]oxy-N-(5-methylpyrazin-2-yl)benzamide] | 220 | 50 |
| Cc1cnc(NC(=O)c2cc(Oc3cnc(C(=O)N(C)C)cn3)cc(O[C@H]3CCN(C)C3=O)c2)cn1 [Example 24, N,N-Dimethyl-5-[3-[(3S)-1-methyl-2-oxo-pyrrolidin-3-yl]oxy-5-[(5-methylpyrazin-2-yl)carbamoyl]phenoxy]pyrazine-2-carboxamide] | 570 | 150 |
| CN1CC[C@H](Oc2cc(Oc3ccc4c(c3)OCCCS4(=O)=O)cc(C(=O)Nc3cc[nH]n3)c2)C1=O [Example 25, 3-[(2,2-Dioxo-6-oxa-2-λ^6-thiabicyclo[5.4.0]undeca-7,9,11-trien-9-yl)oxy]-5-[(3S)-1-methyl-2-oxo-pyrrolidin-3-yl]oxy-N-(1H-pyrazol-3-yl)benzamide] | 40 | 30 |
